Test results reported in article PMC9025555, “Chiral Recognition R- and RS- of New Antifungal: Complexation/Solubilization/Dissolution Thermodynamics and Permeability Assay” (Pharmaceutics, 2022).
≈ marks a conversion by molar mass, not a printed value. Where “and” joins values, the source holds several entries; their conditions need not be identical. Identical values can stand only once.

Legend:
[1] = Complexation parameters with 2-HP-β-CD from phase-solubility diagrams; format: physicochemical; conditions: for increase of the complex stability as compared to L-173: acidic buffer; for Complexation efficiency (CE) / apparent stability constant (KCS): 2-HP-β-CD
Experimental: Thermodynamic functions of the complexation process were determined from the phase solubility diagrams following Higuchi and Connors. The linear AL-type phase-solubility diagrams evidenced the complexes of the first order in respect to cyclodextrin. The equilibrium of the complex formation with 1:1 stoichiometry in the cyclodextrin solution can be described in the following manner:(1) D+CD↔KCD⋅CD where D is the drug molecule, CD is the cyclodextrin molecule, and D·CD is drug/cyclodextrin complex. Respectively, the complexation constant ( KC ) can be expressed by the equation:(2) KC=[D⋅CD]/[D][CD] where [D·CD] is the complex concentration, [CD] is the cyclodextrin concentration, and [D] is the drug concentration. A plot of total solubility ( S2 expressed in molarity—M) in the presence of CD versus CD concentration ( CCD ) (a phase-solubility profile) gives a straight line with a slope equal to (KCS⋅S20/(1+KCS⋅S20)) and intercept equal to S20 from which the apparent stability constants ( KCS ) were estimated via Higuchi–Connors equation [15]:(3) KCS=slope/S20⋅(1−slope), where S20 is the intrinsic solubility of the drug at designated pH in the absence of CD and the slope is the corresponding slope of the phase-solubility diagram.
From CE, the (D:CD) ratio can be derived, which is useful for the estimation of the solubility improvement in CD solutions. Using the CE value, the molar ratio (Drug:CD) was determined:(5) Drug:CD=1:(1+1/CE)

[2] = Phase solubility study (shake-flask) in buffers with 2-HP-β-CD; conditions: for order of the solubility: compared with reported FCZ and L-173
Experimental: An excess amount of the substance was placed in the glass screw-capped vials with the solvent. The vials were stirred in an air thermostat for a certain period of time (a period of 3 days was estimated to be enough for reaching the equilibrium between the solid and the solvent). Then, the saturated solutions were kept in a thermostat in mild conditions no less than 12 h and thereafter centrifuged at a fixed temperature (Biofuge pico, Thermo Electron LED GmbH, Langenselbold, Germany) for 10 min at 12,000 rpm. […] The experimental results were reported as an average of at least three replicated experiments. Temperature uncertainty was ±0.1 K. The sensitivity of UV spectroscopic determinations was characterized by the values of the limit of detection (LOD)/limit of quantification (LOQ).

O=C1S/C(=C\c2ccc(Cl)cc2)C(=O)N1CC(O)CN1CCN(CC(O)(Cn2cncn2)c2ccc(F)cc2F)CC1 (stereo not drawn) [RS-186, (Z)-5-(4-chlorobenzylidene)-3-(3-(4-(2-(2,4-difluorophenyl)-2-hydroxy-3-(1H-1,2,4-triazol-1-yl)propyl)piperazin-1-yl)-2-hydroxypropyl)thiazolidine-2,4-dione]
increase of the complex stability as compared to L-173 ([1]; 298.15 K): ~2.8 fold | increase of the complex stability as compared to L-173 ([1]; 315.15 K): ~1.8 fold | Complexation efficiency (CE) ([1]; pH 2.0, 298.15 K): 35.4% | apparent stability constant (KCS) ([1]; pH 2.0, 298.15 K): 708.9 M⁻¹ and 708.9 ± 71.4 M⁻¹ | Complexation efficiency (CE) ([1]; pH 2.0, 303.15 K): 36.9% | apparent stability constant (KCS) ([1]; pH 2.0, 303.15 K): 688.0 ± 60.3 M⁻¹ | Complexation efficiency (CE) ([1]; pH 2.0, 310.15 K): 39.1% | apparent stability constant (KCS) ([1]; pH 2.0, 310.15 K): 646.7 ± 61.5 M⁻¹ | Complexation efficiency (CE) ([1]; pH 2.0, 313.15 K): 43.2% | apparent stability constant (KCS) ([1]; pH 2.0, 313.15 K): 623.6 ± 60.0 M⁻¹ | ability for complex formation with CD, racemic compound as compared to R-isomer ([1]; pH 2.0 stability constants (Table 2)): 1.3 fold | CE decrease with the temperature growth ([1]; pH 7.4): 17 fold | Complexation efficiency (CE) ([1]; pH 7.4, 298.15 K): 10.3% | Complexation efficiency (CE) ([1]; pH 7.4, 303.15 K): 4.6% | Complexation efficiency (CE) ([1]; pH 7.4, 310.15 K): 1.7% | Complexation efficiency (CE) ([1]; pH 7.4, 313.15 K): 0.6% | effect of CD on the solubility (enhancement) ([2]; acidic buffer, 298.15 K): 28 fold | effect of CD on the solubility (enhancement) ([2]; buffer pH 7.4, 298.15 K): 148 fold | Experimental solubility (S2) ([2]; pH 2.0, 298.15 K, 2-HP-β-CD 0 M, S2 10^3/M): 0.50 ± 0.01 10^3/M | Experimental solubility (S2) ([2]; pH 2.0, 298.15 K, 2-HP-β-CD 0.01 M, S2 10^3/M): 3.37 ± 0.08 10^3/M | Experimental solubility (S2) ([2]; pH 2.0, 298.15 K, 2-HP-β-CD 0.03 M, S2 10^3/M): 8.10 ± 0.22 10^3/M | Experimental solubility (S2) ([2]; pH 2.0, 298.15 K, 2-HP-β-CD 0.04 M, S2 10^3/M): 10.90 ± 0.31 10^3/M | Experimental solubility (S2) ([2]; pH 2.0, 298.15 K, 2-HP-β-CD 0.05 M, S2 10^3/M): 13.80 ± 0.40 10^3/M | Experimental solubility (S2) ([2]; pH 2.0, 303.15 K, 2-HP-β-CD 0 M, S2 10^3/M): 0.54 ± 0.01 10^3/M | Experimental solubility (S2) ([2]; pH 2.0, 303.15 K, 2-HP-β-CD 0.01 M, S2 10^3/M): 3.40 ± 0.04 10^3/M | Experimental solubility (S2) ([2]; pH 2.0, 303.15 K, 2-HP-β-CD 0.03 M, S2 10^3/M): 8.37 ± 0.18 10^3/M | Experimental solubility (S2) ([2]; pH 2.0, 303.15 K, 2-HP-β-CD 0.04 M, S2 10^3/M): 11.20 ± 0.19 10^3/M | Experimental solubility (S2) ([2]; pH 2.0, 303.15 K, 2-HP-β-CD 0.05 M, S2 10^3/M): 14.20 ± 0.22 10^3/M | Experimental solubility (S2) ([2]; pH 2.0, 310.15 K, 2-HP-β-CD 0 M, S2 10^3/M): 0.61 ± 0.02 10^3/M | Experimental solubility (S2) ([2]; pH 2.0, 310.15 K, 2-HP-β-CD 0.01 M, S2 10^3/M): 3.64 ± 0.04 10^3/M | Experimental solubility (S2) ([2]; pH 2.0, 310.15 K, 2-HP-β-CD 0.03 M, S2 10^3/M): 8.68 ± 0.19 10^3/M | Experimental solubility (S2) ([2]; pH 2.0, 310.15 K, 2-HP-β-CD 0.04 M, S2 10^3/M): 11.79 ± 0.33 10^3/M | Experimental solubility (S2) ([2]; pH 2.0, 310.15 K, 2-HP-β-CD 0.05 M, S2 10^3/M): 14.88 ± 0.24 10^3/M | Experimental solubility (S2) ([2]; pH 2.0, 313.15 K, 2-HP-β-CD 0 M, S2 10^3/M): 0.69 ± 0.02 10^3/M | Experimental solubility (S2) ([2]; pH 2.0, 313.15 K, 2-HP-β-CD 0.01 M, S2 10^3/M): 3.97 ± 0.03 10^3/M | Experimental solubility (S2) ([2]; pH 2.0, 313.15 K, 2-HP-β-CD 0.03 M, S2 10^3/M): 9.30 ± 0.31 10^3/M | Experimental solubility (S2) ([2]; pH 2.0, 313.15 K, 2-HP-β-CD 0.04 M, S2 10^3/M): 12.90 ± 0.33 10^3/M | Experimental solubility (S2) ([2]; pH 2.0, 313.15 K, 2-HP-β-CD 0.05 M, S2 10^3/M): 15.90 ± 0.40 10^3/M | order of the solubility ([2]; pH 2.0): (FCZ) > (RS-186 ≥ R-98) > (L-173) | solubility in pure buffer solution ([2]; pH 2.0): 500 µM (≈ 310 µg/mL) | solubility of RS-186 greater than R-98 ([2]; pH 7.4): 1.5 fold | Experimental solubility (S2) ([2]; pH 7.4, 298.15 K, 2-HP-β-CD 0 M, S2 10^4/M): 0.27 ± 0.01 10^4/M | Experimental solubility (S2) ([2]; pH 7.4, 298.15 K, 2-HP-β-CD 0.01 M, S2 10^4/M): 3.15 ± 0.02 10^4/M | Experimental solubility (S2) ([2]; pH 7.4, 298.15 K, 2-HP-β-CD 0.03 M, S2 10^4/M): 20.00 ± 0.32 10^4/M | Experimental solubility (S2) ([2]; pH 7.4, 298.15 K, 2-HP-β-CD 0.04 M, S2 10^4/M): 30.70 ± 0.51 10^4/M | Experimental solubility (S2) ([2]; pH 7.4, 298.15 K, 2-HP-β-CD 0.05 M, S2 10^4/M): 40.20 ± 0.58 10^4/M | Experimental solubility (S2) ([2]; pH 7.4, 303.15 K, 2-HP-β-CD 0 M, S2 10^4/M): 0.30 ± 0.01 10^4/M | Experimental solubility (S2) ([2]; pH 7.4, 303.15 K, 2-HP-β-CD 0.01 M, S2 10^4/M): 2.74 ± 0.03 10^4/M | Experimental solubility (S2) ([2]; pH 7.4, 303.15 K, 2-HP-β-CD 0.03 M, S2 10^4/M): 10.60 ± 0.33 10^4/M | Experimental solubility (S2) ([2]; pH 7.4, 303.15 K, 2-HP-β-CD 0.04 M, S2 10^4/M): 15.60 ± 0.41 10^4/M | Experimental solubility (S2) ([2]; pH 7.4, 303.15 K, 2-HP-β-CD 0.05 M, S2 10^4/M): 20.10 ± 0.21 10^4/M | Experimental solubility (S2) ([2]; pH 7.4, 310.15 K, 2-HP-β-CD 0 M, S2 10^4/M): 0.35 ± 0.01 10^4/M | Experimental solubility (S2) ([2]; pH 7.4, 310.15 K, 2-HP-β-CD 0.01 M, S2 10^4/M): 1.93 ± 0.03 10^4/M | Experimental solubility (S2) ([2]; pH 7.4, 310.15 K, 2-HP-β-CD 0.03 M, S2 10^4/M): 5.01 ± 0.05 10^4/M | Experimental solubility (S2) ([2]; pH 7.4, 310.15 K, 2-HP-β-CD 0.04 M, S2 10^4/M): 6.97 ± 0.08 10^4/M | Experimental solubility (S2) ([2]; pH 7.4, 310.15 K, 2-HP-β-CD 0.05 M, S2 10^4/M): 8.58 ± 0.08 10^4/M | Experimental solubility (S2) ([2]; pH 7.4, 313.15 K, 2-HP-β-CD 0 M, S2 10^4/M): 0.37 ± 0.01 10^4/M | Experimental solubility (S2) ([2]; pH 7.4, 313.15 K, 2-HP-β-CD 0.01 M, S2 10^4/M): 1.37 ± 0.06 10^4/M | Experimental solubility (S2) ([2]; pH 7.4, 313.15 K, 2-HP-β-CD 0.03 M, S2 10^4/M): 2.50 ± 0.03 10^4/M | Experimental solubility (S2) ([2]; pH 7.4, 313.15 K, 2-HP-β-CD 0.04 M, S2 10^4/M): 3.20 ± 0.05 10^4/M | Experimental solubility (S2) ([2]; pH 7.4, 313.15 K, 2-HP-β-CD 0.05 M, S2 10^4/M): 3.65 ± 0.05 10^4/M | order of the solubility ([2]; pH 7.4): (FCZ) > (R-98 ≥ RS-186) >> (L-173) | solubility in pure buffer solution ([2]; pH 7.4): 27 µM (≈ 16.7 µg/mL)
